Assay results from publication PMC8951328, “New Metabolites from the Marine Sponge Scopalina hapalia Collected in Mayotte Lagoon” (Marine Drugs, 2022).
pIC50: −log10 of the molar value.

Biological target: T1, yeast proteasome (Saccharomyces cerevisiae, UniProt P30656)
T1 construct: gene PRE2; yeast proteasome (TUM Groll group); with other subunits of the yeast proteasome
T1 sequence (P30656 76-287): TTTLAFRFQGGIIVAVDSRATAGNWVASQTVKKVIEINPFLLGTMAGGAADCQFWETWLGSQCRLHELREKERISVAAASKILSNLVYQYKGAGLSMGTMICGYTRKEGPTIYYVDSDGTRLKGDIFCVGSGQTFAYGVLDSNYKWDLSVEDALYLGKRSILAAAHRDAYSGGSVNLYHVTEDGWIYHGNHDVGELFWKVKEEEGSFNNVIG
Experiment: fluorescence intensity assay with Suc-Leu-Leu-Val-Tyr-AMC substrate
Type: biochemical

Q: `COc1ccc(C[C@H](NC(=O)[C@H](C)NC(=O)CN2CCOCC2)C(=O)N[C@@H](Cc2ccccc2)C(=O)[C@@]2(C)CO2)cc1` [ONX-0914] was tested. Which pIC50 did it give?
A: The pIC50 was 10.44.
